# Where two headings read alike, the source gives them in different places.
# Biological target: T1, soybean lipoxidase type V (Glycine max, UniProt P08170)
# T1 sequence (P08170 1-839): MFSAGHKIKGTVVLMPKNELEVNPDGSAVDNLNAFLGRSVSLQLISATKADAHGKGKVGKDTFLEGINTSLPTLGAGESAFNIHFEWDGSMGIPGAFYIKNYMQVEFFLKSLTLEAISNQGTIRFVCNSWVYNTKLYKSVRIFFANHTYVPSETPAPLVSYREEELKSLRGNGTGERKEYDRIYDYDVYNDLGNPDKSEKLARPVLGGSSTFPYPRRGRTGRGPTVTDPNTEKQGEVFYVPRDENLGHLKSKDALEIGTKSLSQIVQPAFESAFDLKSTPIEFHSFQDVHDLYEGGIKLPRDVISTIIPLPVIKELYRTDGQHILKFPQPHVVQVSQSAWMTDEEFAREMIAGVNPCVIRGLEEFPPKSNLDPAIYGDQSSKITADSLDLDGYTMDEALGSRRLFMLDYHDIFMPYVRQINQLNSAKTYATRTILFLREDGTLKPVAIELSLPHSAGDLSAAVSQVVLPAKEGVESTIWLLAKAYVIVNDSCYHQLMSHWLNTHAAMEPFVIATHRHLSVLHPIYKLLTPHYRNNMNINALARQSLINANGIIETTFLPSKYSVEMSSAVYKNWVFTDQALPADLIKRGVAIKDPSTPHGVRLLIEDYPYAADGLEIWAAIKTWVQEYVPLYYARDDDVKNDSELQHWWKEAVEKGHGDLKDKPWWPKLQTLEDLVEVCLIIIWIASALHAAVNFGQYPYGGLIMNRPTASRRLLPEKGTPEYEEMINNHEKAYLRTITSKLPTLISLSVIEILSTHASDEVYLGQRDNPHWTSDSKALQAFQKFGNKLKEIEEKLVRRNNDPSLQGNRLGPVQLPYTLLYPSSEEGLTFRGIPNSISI
# Conditions: for A234 nm/min.: 25° C., 0.1M borate pH 9
smiles,measurement,setting,value
"CC(Cc1ccc(O)c(O)c1)C(C)Cc1ccc(O)c(O)c1 (centres unmarked) [NDGA, nordihydroguaiaretic acid]",A234 nm/min.,NDGA 1.3 × 10^-4 M,0.217 min⁻¹
same,A234 nm/min.,NDGA 2.6 × 10^-4 M,0.186 min⁻¹
same,A234 nm/min.,NDGA 3.2 × 10^-4 M,0.100 min⁻¹
same,A234 nm/min.,NDGA 3.9 × 10^-4 M,0.035 min⁻¹
same,inhibition at 130 µM,pH 9,1%
same,inhibition at 260 µM,pH 9,14%
same,inhibition at 320 µM,pH 9,54%
"Oc1cccc2ccccc12 [alpha-Naphthol, alpha-naphthol]",A234 nm/min.,alpha-Naphthol 2.5 × 10^-5 M,.230 min⁻¹
same,A234 nm/min.,alpha-Naphthol 6.2 × 10^-5 M,.141 min⁻¹
same,A234 nm/min.,alpha-Naphthol 7.5 × 10^-5 M,.074 min⁻¹
same,A234 nm/min.,alpha-Naphthol 8.8 × 10^-5 M,.069 min⁻¹
same,A234 nm/min.,alpha-Naphthol 12.5 × 10^-5 M,.021 min⁻¹
same,inhibition at 25 µM,pH 9,12%
same,inhibition at 62 µM,pH 9,46%
same,inhibition at 75 µM,pH 9,72%
same,inhibition at 88 µM,pH 9,74%
same,inhibition at 125 µM,pH 9,92%

# Reference: patent US4708964A, “Lipoxygenase inhibitors” (Chemex Pharmaceuticals, priority 1984, dated 1987)
